Results reported in article PMC12016938, “A small molecule PKCε inhibitor reduces hyperalgesia induced by paclitaxel or opioid withdrawal” (JCI Insight, 2025).

Experiments:
[1] = tested on: morphine self-administration; assay type: in vivo; settings: morphine 500 µg/kg/infusion alone, individual rats and group mean
Procedure: Because many patients with chronic pain take opioids for pain management ([8], [9]), we wanted to know if CP612 would change opioid intake. Therefore, we investigated if adding CP612 to the morphine solution during self-administration (i.e., a cocktail of morphine and CP612) modifies self-administration of morphine. We tested rats from the prior experiment for self-administration of morphine (500 μg/kg/i.v. infusion). Rats were first tested under a FR6 to reestablish responding.
Rats not immediately anesthetized were eliminated from the study. This excluded 2 rats from all experiments.

[2] = tested on: self-administration (addictive potential); experiment: I.v. self-administration of CP612, between-session progressive ratio and demand curve; settings: rat, in vivo
Procedure: We tested the addictive potential of CP612 by examining the extent to which rats are willing to work to obtain CP612. Rats were initially trained to self-administer either saline, morphine (500 μg/kg/i.v. infusion), or 1 of 3 different doses of CP612 (75, 150, or 300 μg/kg/i.v. infusion) for 4 days at fixed ratio 1 (FR1, where 1 nose poke delivers 1 infusion).
During the second phase, the ratio to obtain an infusion increased geometrically every other day (FR1, FR3, FR6, FR12, FR24, FR48, and FR96).
Data (number of self-infusions) were also fitted in an economic-demand curve, which provides an estimate of the motivation to obtain drugs and their addictive potential ([20]). We measured elasticity (α), which is the relative change in consumption as a function of price (i.e., ratio of nose pokes required to obtain an infusion). Behavior is considered “inelastic” when consumption is insensitive to price and “elastic” when consumption is sensitive to price. We also measured Pmax, which is the price at which intake switches from inelastic to elastic. […] (Figure 8B).
Rats not immediately anesthetized were eliminated from the study.
Following this initial acquisition phase at FR1, the ratio to obtain the drug was increased geometrically every other day: FR3 (3 nose pokes are required to obtain 1 infusion of morphine), FR6, FR12, FR24, FR48, and FR96. This allows for analysis of drug consumption as a function of “price” using demand curves for behavioral economics, which can estimate the motivation to obtain drugs and their “addictive potential” ([20]). For this, data from each rat were fitted to the equation log Q = log Q0 + k (e ^–α(Q0 ^C) – 1), where Q represents consumption (number of self-infusions), and Q0 represents the level of consumption at the lowest price. C represents price for the drug (i.e., the ratio), and k is set to a constant accounting for the estimated range of consumption in logarithmic units (k = 4 in these studies). The symbol α is the relative change in consumption across changes in price (ratio). Behavior is considered “inelastic” when consumption is insensitive to price (i.e., the curve is flat, and consumption is maintained despite increases in price), and it switches to “elastic” when consumption is sensitive to price (i.e., when the curve is steep and consumption declines with increases in price). […] We also compared groups for their average intake in the consumption-price curves by measuring α (elasticity) and Pmax.

[3] = tested on: paclitaxel-induced hyperalgesia; experiment: Paclitaxel-induced hyperalgesia, Randall-Selitto paw pressure test; settings: male rats; 1 mg/kg i.p. on days 1, 3, 5, 7
Procedure: We tested if CP612 reverses this hyperalgesia. Male rats received repeated injections of paclitaxel (1 mg/kg, i.p. on days 1, 3, 5, and 7). Twenty-four hours after the last dose of paclitaxel, rats were administered vehicle (2 mL/kg, i.p.) or CP612 (20 mg/kg, i.p.).
Mechanical nociceptive thresholds in rats were quantified by the Randall-Selitto paw pressure test using an Ugo Basile Analgesy-Meter. This device applies a linearly increasing mechanical force to the dorsum or plantar region of the rat hind paw. The mechanical nociceptive threshold is defined as the force in grams at which a rat withdraws its paw. The higher the force to elicit paw withdrawal, the higher the pain threshold (and the lower the sensitivity to pain). For studies testing nociceptive thresholds after the PKCε activator ψεRACK, or after the cancer chemotherapeutic drug paclitaxel, rats were placed into cylindrical acrylic restrainers for 40 minutes before starting each session. The restrainers had lateral ports to allow access to the hind paw, as previously described ([35]), and pain thresholds were measured by applying force to the dorsum of the hind paw. Prior to starting experiments, baseline mechanical nociceptive threshold was obtained as the mean of 2–3 readings on 1 hind paw in each rat.

## CN1CC[C@]23c4c5ccc(O)c4O[C@H]2[C@@H](O)C=C[C@H]3[C@H]1C5 [Mor]
[1]; Day 3, progressive ratio
  D3 Breakin Point (PR): 38.3
[1]; active hole, Day 1, fixed ratio
  D1 AH (FR6): 49.2
[1]; active hole, Day 2, fixed ratio
  D2 AH (FR6): 68.6
[1]; active hole, Day 3, progressive ratio
  D3 AH (PR): 186.1
[1]; inactive hole, Day 1, fixed ratio
  D1 IH (FR6): 4.7
[1]; inactive hole, Day 2, fixed ratio
  D2 IH (FR6): 5.2
[1]; inactive hole, Day 3, progressive ratio
  D3 IH (PR): 8.8
[1]; infusions, Day 1, fixed ratio
  D1 Inf (FR6): 6.7
[1]; infusions, Day 2, fixed ratio
  D2 Inf (FR6): 9.4
[1]; infusions, Day 3, progressive ratio
  D3 Inf (PR): 10.5
[1]; intake, Day 1, fixed ratio
  D1 mg/kg (FR6): 3.3 mg/kg
[1]; intake, Day 2, fixed ratio
  D2 mg/kg (FR6): 4.7 mg/kg
[1]; intake, Day 3, progressive ratio
  D3 mg/kg (PR): 5.2 mg/kg
[1]; time to first self-administered infusion, Day 1, fixed ratio
  D1 Latency (FR6): 3.3 min
[1]; time to first self-administered infusion, Day 2, fixed ratio
  D2 Latency (FR6): 2.8 min
[2]
  AVG AH (FR3): 25.72
  AVG AH (FR6): 41.83
  AVG AH (FR12): 75.17
  AVG AH (FR24): 136.00
  AVG AH (FR48): 160.11
  AVG AH (FR96): 163.28
  AVG IH (FR1_D1 to D4): 7.83
  AVG IH (FR1_Last 2 FR1 days): 4.44
  AVG IH (FR1_Last 4 FR1 days): 6.31
  AVG IH (FR3): 9.28
  AVG IH (FR6): 8.33
  AVG IH (FR12): 9.39
  AVG IH (FR24): 10.72
  AVG IH (FR48): 14.00
  AVG IH (FR96): 15.22
  AVG Inf (FR3): 7.00
  AVG Inf (FR6): 6.22
  AVG Inf (FR12): 5.56
  AVG Inf (FR24): 5.00
  AVG Inf (FR48): 2.83
  AVG Inf (FR96): 1.17
  AVG Latency (FR1_D1 to D4): 2.60
  AVG Latency (FR1_Last 2 FR1 days): 0.81
  AVG Latency (FR1_Last 4 FR1 days): 0.93
  AVG Latency (FR3): 0.62
  AVG Latency (FR6): 1.19
  AVG Latency (FR12): 1.12
  AVG Latency (FR24): 1.19
  AVG Latency (FR48): 0.69
  AVG Latency (FR96): 0.92
  D1 AH (FR1): 13.44
  D1 AH (FR3): 24.67
  D1 AH (FR6): 38.44
  D1 AH (FR12): 75.11
  D1 AH (FR24): 135.67
  D1 AH (FR48): 167.78
  D1 AH (FR96): 169.67
  D1 IH (FR1): 11.56
  D1 IH (FR3): 9.11
  D1 IH (FR6): 7.11
  D1 IH (FR12): 9.22
  D1 IH (FR24): 10.56
  D1 IH (FR48): 13.22
  D1 IH (FR96): 17.11
  D1 Inf (FR1): 8.78
  D1 Inf (FR3): 6.56
  D1 Inf (FR6): 5.67
  D1 Inf (FR12): 5.67
  D1 Inf (FR24): 4.89
  D1 Inf (FR48): 2.89
  D1 Inf (FR96): 1.33
  D1 Latency (FR1): 7.37
  D1 Latency (FR3): 0.52
  D1 Latency (FR6): 0.51
  D1 Latency (FR12): 0.93
  D1 Latency (FR24): 0.99
  D1 Latency (FR48): 0.71
  D1 Latency (FR96): 1.02
  D2 AH (FR1): 11.44
  D2 AH (FR3): 26.78
  D2 AH (FR6): 45.22
  D2 AH (FR12): 75.22
  D2 AH (FR24): 136.33
  D2 AH (FR48): 152.44
  D2 AH (FR96): 156.89
  D2 IH (FR1): 6.89
  D2 IH (FR3): 9.44
  D2 IH (FR6): 9.56
  D2 IH (FR12): 9.56
  D2 IH (FR24): 10.89
  D2 IH (FR48): 14.78
  D2 IH (FR96): 13.33
  D2 Inf (FR1): 8.89
  D2 Inf (FR3): 7.44
  D2 Inf (FR6): 6.78
  D2 Inf (FR12): 5.44
  D2 Inf (FR24): 5.11
  D2 Inf (FR48): 2.78
  D2 Inf (FR96): 1.00
  D2 Latency (FR1): 0.74
  D2 Latency (FR3): 0.72
  D2 Latency (FR6): 1.88
  D2 Latency (FR12): 1.31
  D2 Latency (FR24): 1.39
  D2 Latency (FR48): 0.68
  D2 Latency (FR96): 0.82
  D3 AH (FR1): 14.11
  D3 IH (FR1): 8.44
  D3 Inf (FR1): 9.22
  D3 Latency (FR1): 1.40
  D4 AH (FR1): 14.00
  D4 IH (FR1): 4.44
  D4 Inf (FR1): 9.56
  D4 Latency (FR1): 0.90
  last AH (FR1): 14.00
  last IH (FR1): 4.44
  last Inf (FR1): 9.78
  last Latency (FR1): 0.71
  last-1 AH (FR1): 14.00
  last-1 IH (FR1): 4.44
  last-1 Inf (FR1): 9.56
  last-1 Latency (FR1): 0.90
  last-2 AH (FR1): 14.11
  last-2 IH (FR1): 8.44
  last-2 Inf (FR1): 9.22
  last-2 Latency (FR1): 1.40
  last-3 AH (FR1): 12.67
  last-3 IH (FR1): 7.89
  last-3 Inf (FR1): 8.89
  last-3 Latency (FR1): 0.69

## CC(=O)O[C@H]1C(=O)[C@@]2(C)[C@H]([C@H](OC(=O)c3ccccc3)[C@]3(O)C[C@H](OC(=O)[C@H](O)[C@@H](NC(=O)c4ccccc4)c4ccccc4)C(C)=C1C3(C)C)[C@]1(OC(C)=O)CO[C@@H]1C[C@@H]2O [Paclitaxel]
[3]
  Effect of paclitaxel on nociceptive threshold: induced hyperalgesia
